Laboratory results reported in patent US6300112A, “β-xylosidase, nucleotide sequence encoding it, and use thereof” (Danisco Ingredients A.S (Danisco A/S), priority 1995, dated 2001).

Experiments:
[1] = target: T1, Aspergillus niger β-xylosidase I (X-I, xylD), SEQ ID NO. 1 (Aspergillus niger, UniProt O00089); assay: Inhibition of β-xylosidase X-I by xylose; assay type: biochemical; conditions: β-xylosidase X-I of the invention; read-out: inhibition Ki (mM xylosc)
T1 construct: Mono Q peak I
Description: (§1) Table A summarises the specificity pattern of two β-xylosidases X-I and X-II of the invention--presumably differing only in their glycosylation pattern, not in their amino acid sequence--and of the β-xylosidase reported by Rodionova et al., and their inhibition by xylose.
(§2) DEAE-Sephadex A-50 was equilibrated in 50 mM sodium acetate buffer pH 5.0 and was added to the culture filtrate. After 30-60 minutes of stirring at 4° C., the DEAE-Sephadex together with the culture filtrate were passed through a funnel with a glass filter holder and the DEAE-Sephadex A-50 was transferred to a column. […] Fractions containing β-xylosidase activity, as was detected using the chromogenic substrate 4-methylumbelliferyl-β-D-xyloside (detects β-xylosidases and endo-xylanases) (Sigma #M7008), were pooled and desalted by dialysis against Millipore water and subsequently dialysed against 20 mM piperazine-HCl buffer pH 5.0. […] The specific activity of both β-xylosidase I and II towards the artificial substrate PNP-X was determined as described by Rodionova et al., 1983, to be respectively 60.2 and 60.9 U/mg protein. In addition the activity against PNP-β-D-glucopyranoside (Sigma #N7006) was determined to be 0.2 and 0.3 U/mg, against PNP-β-D-galactopyranoside (Sigma #N1252) 0.0 and 0.0 U/mg and against PNP-β-L-arabinofuranoside(Sigma #N3641) 2.8 and 3.4 U/mg respectively for β-xylosidase I and II.

[2] = target: T2, Aspergillus niger β-xylosidase II (X-II, xylD), SEQ ID NO. 1 (Aspergillus niger, UniProt O00089); assay: Inhibition of β-xylosidase X-II by xylose; assay type: biochemical; conditions: β-xylosidase X-II of the invention; read-out: inhibition Ki (mM xylosc)
T2 construct: Mono Q peak II
T2 sequence (O00089 27-804): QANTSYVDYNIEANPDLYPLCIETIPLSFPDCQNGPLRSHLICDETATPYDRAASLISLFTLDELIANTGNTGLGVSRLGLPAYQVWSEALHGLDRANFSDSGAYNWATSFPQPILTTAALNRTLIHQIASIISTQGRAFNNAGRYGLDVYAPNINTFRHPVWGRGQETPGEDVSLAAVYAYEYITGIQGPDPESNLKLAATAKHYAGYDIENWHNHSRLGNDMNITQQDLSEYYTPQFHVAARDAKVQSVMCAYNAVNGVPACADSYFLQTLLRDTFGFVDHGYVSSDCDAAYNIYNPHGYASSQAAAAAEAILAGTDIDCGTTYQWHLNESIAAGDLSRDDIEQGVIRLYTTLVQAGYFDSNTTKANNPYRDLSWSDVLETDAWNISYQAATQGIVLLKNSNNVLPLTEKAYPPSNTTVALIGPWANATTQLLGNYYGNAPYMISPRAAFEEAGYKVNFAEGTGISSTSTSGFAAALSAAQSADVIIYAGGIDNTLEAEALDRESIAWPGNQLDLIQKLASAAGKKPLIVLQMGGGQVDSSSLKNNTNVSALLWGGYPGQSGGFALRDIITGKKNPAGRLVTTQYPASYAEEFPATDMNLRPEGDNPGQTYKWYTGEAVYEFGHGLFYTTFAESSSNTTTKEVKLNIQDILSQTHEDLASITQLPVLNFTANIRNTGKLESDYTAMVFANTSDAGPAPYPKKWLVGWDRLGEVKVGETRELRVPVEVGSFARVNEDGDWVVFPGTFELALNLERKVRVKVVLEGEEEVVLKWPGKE
Description: as §1, §2

[3] = target: Aspergillus niger β-xylosidase according to Rodionova et al. (1983); conditions: β-xyl (Rodionova), comparison enzyme; read-out: inhibition Ki (mM xylosc); cited from earlier work

T1 sequence (O00089 27-804): as above

xylose
Ki [1]: 9.8 mM
Ki [2]: 13.2 mM
Ki [3]: 2.9 mM
